In patent US9149480B2, “Use of meloxicam for the long-term treatment of musculoskeletal disorders in cats” (Boehringer Ingeleheim Vetmedica GmbH, priority 2010, dated 2015):

System: cats
Test: Retrospective study of long-term meloxicam treatment in aged cats with osteoarthritis: progression of renal disease versus matched untreated controls
Type: in vivo, cat
Details: for progression of renal disease: maintenance dose of 0.02 mg/kg; for progression of renal parameters: median maintenance dose 0.02 mg/kg daily; for loss of urine concentrating ability / weight loss: time adjusted AUC change from baseline, Wilcoxon rank-sum-test
Description: The medical records of a feline-only practice were searched for cats with OA being treated with meloxicam during a 4 year period. A diagnosis of OA was based upon any two of the following: owner noted mobility changes and/or physical examination findings or radiographic changes. Cats included were older than 7 years and treated with meloxicam for a duration of more than 6 months. Complete medical records were available for review. Biochemistry, urinalysis and body weight were regularly monitored. The progression of renal disease in the aged non-renal and renal group treated was compared to age matched and IRIS matched untreated controls from the same clinic.
The database of a feline-only practice in suburban Melbourne was searched for cats which had been treated for chronic musculoskeletal disorders with meloxicam (Metacam oral suspension, Boehringer Ingelheim) during a 4 year period. The diagnosis of osteoarthritis or spondylosis deformans had been made based upon any two of the following: owner noted mobility changes, physical examination findings or radiographic changes. The inclusion criteria included cats greater than 7 years old which had been treated continuously with meloxicam for a duration of more than 6 months and which had complete medical records available for review. In addition, cats were only included if serum biochemistry, urine analysis and body weight had been regularly monitored.
Young cats were excluded, as were cats with no pre-treatment renal parameter measurements. In addition cats were also excluded if the owner could not be contacted to check that the cats were still receiving daily treatment with meloxicam.
Age, breed, sex, concomitant diseases and medications as well as date treatment commenced, treatment duration and daily dose of meloxicam were recorded.
The presence or absence of pre-treatment renal disease and staging of the renal disease was carried out using plasma creatinine and urine specific gravity according to the following recognised International Renal Interest Society criteria (IRIS staging 2006):
The treated cats were then subdivided into two groups: the renal treated group that belonged to IRIS stage 1-3 and were pre-treated, and the non-renal treated group that has no identifiable renal disease pre-treatment. Urine specific gravity, serum creatinine and bodyweight were used as indicators of renal disease progression. The progression of renal disease was then compared to age and IRIS matched untreated controls were then randomly identified from the database of the same clinic.
The median age of the renal and non-renal treated cats, median treatment duration and median maintenance dose was calculated.
The progression of renal disease in the non-renal treated group was compared to the age matched untreated controls. The progression of renal disease in the treated renal-diseased group was compared to age matched and IRIS matched untreated controls from the same clinic. Statistical analysis was carried out using a time adjusted area-under-the-curve (AUC) changes from baseline time 0 until the last recorded value (n).
The Wilcoxon rank-sum-test was used to compare the groups. With this nonparametric test the distribution of the adjusted AUC of two groups was compared regarding the location. Under the null hypothesis it is assumed that there is no location shift in the distributions of the two treatment groups. If the resulting p-value is lower than the two-sided significance level of 5% the null hypothesis is rejected.

[1] = non-renal group treated with meloxicam vs non-renal group not treated
[2] = renal group treated with meloxicam vs age and IRIS matched untreated renal group

progression of renal parameters (non-renal group treated with meloxicam vs non-renal group not treated, median treatment duration 400 days): no differences
loss of urine concentrating ability [1]: no statistically significant differences
weight loss [1]: no statistically significant differences
progression of renal parameters (renal group (IRIS stage 1-3) treated with meloxicam vs age and IRIS matched untreated renal group, median treatment duration 527 days): no differences
loss of urine concentrating ability [2]: no statistically significant differences
weight loss [2]: no statistically significant differences
Compound: Cc1cnc(NC(=O)C2=C(O)c3ccccc3S(=O)(=O)N2C)s1 [meloxicam]
progression of renal disease (aged cats with pre-existent stable IRIS stage 1-3 renal disease): does not hasten progression of renal disease
progression of renal disease (aged cats): does not hasten progression of renal disease
median maintenance dose after dose titration to the lowest effective dose (daily, oral suspension, both the renal treated and non-renal treated groups): 0.02 mg/kg
mean serum creatinine concentration increase over time (renal group treated with meloxicam vs renal untreated group): increased statistically significantly less
